What was measured:
H1703 cells = experiment: Cell Titer-Glo cell viability assay, H1703 NSCLC cells; assay type: cell-based, Human; conditions: for cells killed: viability 72 hr later
Protocol: Cells were maintained at 37° C., 5% CO2 atmosphere.
[…] […] Viability was assessed 72 hr later.
Combination Index (CI) was then determined using the median effect analysis software CalcuSyn 2.0 (CalcuSyn, Inc.). A Combination Index greater than 1, equal to 1 or less than 1 indicates antagonism, additivity and synergism, respectively.

H1838 cells = experiment: Cell viability assay, H1838 NSCLC cells; assay type: cell-based, Human; conditions: bortezomib day 1, compound 1 day 2; 72 hours after compound 1 exposure (FIG. 6)
Protocol: Human H1703, H1975, H1838 NSCLC cells, U266 multiple myeloma cells, HCT116 colon cancer cells and Detroit562 head and neck cancer cells were purchased from the American Type Culture Collection (Manassas, Va.). H1975, H1703, H1838 and U266 cells were grow in RPMI media, HCT116 cells were grown in McCoy's media and Detroit562 cells were grown in MEM. Fetal bovine serum (10%) was added to all media, along with 2 mM L-glutamine and antibiotics (100 IU/ml penicillin and 100 μg/ml streptomycin) purchased from Sigma Aldrich. Cells were maintained at 37° C., 5% CO2 atmosphere.
Cell viability was measured using the Cell Titer-Glo assay (Promega). In brief, cells were plated in 96-well plates in triplicate at optimal seeding density (determined empirically for each cell line) and incubated at 37° C., 5% CO2 atmosphere for 24 hr prior to the addition of drug or vehicle (0.3% DMSO) to the culture medium. At the end of the assay, Cell Titer-Glow was added to the wells per manufactures recommendation, shaken for two minutes and incubated for 10 minutes at room temperature. Luminescence (0.1 sec) was measured with a Victor II microplate reader (Perkin Elmer) and the resulting data were used to calculate cell viability, normalized to vehicle control.

[1] = Phase 1 clinical investigations, intravenous Compound 1; assay type: in vivo, human
Description: Compound 1 was advanced into phase 1 clinical investigations studying patients with refractory hematologic malignancies using two intravenous schedules of administration: weekly for 3 out of every 4 weeks and twice weekly without breaks dosing by one-hour infusion.

[2] = bortezomib day 1, compound 1 Day 2, 72 hours after compound 1 exposure (FIG. 4)
[3] = concurrent, one hour on both days 1 and 2, 72 hours after final drug exposure (FIG. 5)

| Structure (SMILES) | cells killed (H1703 cells; bortezomib alone 22 nM, 1 hr exposure Day 1 and Day 2) [%] | cell death by microscopy (H1703 cells; [2]) | cells killed (H1703 cells; bortezomib on its own 15 nM, 8 hr pulse Day 1, washout) [%] | cell death by microscopy (H1703 cells; [3]) | cell death by microscopy (H1838 cells) | cells killed (H1703 cells; compound 1 alone 50 nM, 8 hr pulse, washout) [%] | cells killed (H1703 cells; compound 1 alone 74 nM, 1 hr exposure Day 1 and Day 2) [%] | efficacy signals, hematologic malignancies ([1]; phase 1 AML and CML patients) | cardiac effects following the infusion ([1]; phase 1 patients) | efficacy signals, solid tumors ([1]; phase 1 patients) | patients with Grade 1-2 infusional reactions ([1]; phase 1 patients) [%] | severe hepatotoxicity ([1]; phase 1 patients, unlike geldanamycin-based HSP90 inhibitors) | dose limiting toxicities ([1]; phase 1 program, solid tumors and refractory hematologic malignancies, one-hour infusion) |
| --- | --- | --- | --- | --- | --- | --- | --- | --- | --- | --- | --- | --- | --- |
| CC(C)C[C@H](NC(=O)[C@H](Cc1ccccc1)NC(=O)c1cnccn1)B(O)O [bortezomib, reference compound] | 15 | weak activity | 25 | weak activity | weak activity |  |  |  |  |  |  |  |  |
| CC(C)c1cc(-c2nnc(O)n2-c2ccc3c(ccn3C)c2)c(O)cc1O [compound 1, 3-(2,4-dihydroxy-5-isopropyl-phenyl)-4-(1-methyl-indol-5-yl)-5-hydroxy-[1,2,4] triazole] |  | weak activity |  | weak activity | weak activity | 10 | 15 | declines in peripheral and bone marrow blasts | Moderate tachycardia and PR interval prolongation | partial responses in colorectal cancer and melanoma | 5 | has not been observed | reversible fatigue and diarrhea |

From patent US20130331357A1, “COMBINATION THERAPY OF HSP90 INHIBITORY COMPOUNDS WITH PROTEASOME INHIBITORS” (SYNTA PHARMACEUTICALS CORP., priority 2011, published 2013)
